The source of these data is patent publication US20070202179A1, “Low Dose Pharmaceutical Products” (priority 2004, published 2007).

For the experiment, the target named is T1, human PPAR alpha (Homo sapiens, UniProt Q07869).
T1 sequence (Q07869 1-468): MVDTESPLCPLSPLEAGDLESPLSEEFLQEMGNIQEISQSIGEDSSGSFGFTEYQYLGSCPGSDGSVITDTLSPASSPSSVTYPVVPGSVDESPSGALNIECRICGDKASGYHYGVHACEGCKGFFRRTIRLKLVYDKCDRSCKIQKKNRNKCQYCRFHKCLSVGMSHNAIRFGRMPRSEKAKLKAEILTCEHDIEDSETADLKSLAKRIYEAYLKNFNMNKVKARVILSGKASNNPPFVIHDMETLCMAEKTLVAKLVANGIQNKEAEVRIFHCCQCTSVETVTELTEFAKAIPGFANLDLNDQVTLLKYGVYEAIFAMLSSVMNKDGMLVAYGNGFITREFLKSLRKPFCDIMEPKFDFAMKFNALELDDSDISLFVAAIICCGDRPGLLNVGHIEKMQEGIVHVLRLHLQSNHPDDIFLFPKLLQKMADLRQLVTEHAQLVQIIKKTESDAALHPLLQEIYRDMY
Nature of the experiment: Effectiveness of Compound 1 at very low daily dosage regimes. Particulars: investigated for dyslipidemia, syndrome X and atherosclerosis. The format is in vivo. The procedure: The compound of formula (1) is a particularly preferred PPAR alpha agonist and is described in WO 01/40207 as being of use in human PPAR alpha mediated diseases. The dosage regime contemplated in WO 01/40207 is 0.02-5000 mg per day. […] Thus the invention further provides a pharmaceutical composition comprising less than 1-100 μg Compound (1) or pharmaceutically acceptable salts, solvates and physiologically functional derivatives thereof together with a pharmaceutically acceptable carrier. Preferably the composition comprises less than 20 μg, more preferably 1-18 μg, most preferably 1-10 μg.

`Cc1nc(-c2ccc(C(F)(F)F)cc2)sc1C(=O)NCc1ccc(OC(C)(C)C(=O)O)cc1` [Compound 1, 2-methyl-2-[4-{[(4-methyl-2-[4-trifluoromethylphenyl]-thiazol-5-ylcarbonyl)amino]methyl}phenoxy]propionic acid]: the “Dosage regime at which the compound is effective” value was “less than 0.02 mg per day”.
